Data: patent publication US20190322676A1, “CERAMIDE GALACTOSYLTRANSFERASE INHIBITORS FOR THE TREATMENT OF DISEASE” (BioMarin Pharmaceutical Inc., priority 2016, published 2019)
Counter-ions that a name gives are not always drawn.

Target: T1, human CGT (ceramide galactosyltransferase), CHO/CGT lysate (Homo sapiens, UniProt Q16880)
T1 construct: Full-length human CGT cDNA was cloned into the BamH1/Xho1 site of pcDNA3.1 (+); expressed in transfected cells; host or cells: Chinese hamster ovary (CHO) cells; lysate prepared with M-PER
T1 sequence (Q16880 21-541): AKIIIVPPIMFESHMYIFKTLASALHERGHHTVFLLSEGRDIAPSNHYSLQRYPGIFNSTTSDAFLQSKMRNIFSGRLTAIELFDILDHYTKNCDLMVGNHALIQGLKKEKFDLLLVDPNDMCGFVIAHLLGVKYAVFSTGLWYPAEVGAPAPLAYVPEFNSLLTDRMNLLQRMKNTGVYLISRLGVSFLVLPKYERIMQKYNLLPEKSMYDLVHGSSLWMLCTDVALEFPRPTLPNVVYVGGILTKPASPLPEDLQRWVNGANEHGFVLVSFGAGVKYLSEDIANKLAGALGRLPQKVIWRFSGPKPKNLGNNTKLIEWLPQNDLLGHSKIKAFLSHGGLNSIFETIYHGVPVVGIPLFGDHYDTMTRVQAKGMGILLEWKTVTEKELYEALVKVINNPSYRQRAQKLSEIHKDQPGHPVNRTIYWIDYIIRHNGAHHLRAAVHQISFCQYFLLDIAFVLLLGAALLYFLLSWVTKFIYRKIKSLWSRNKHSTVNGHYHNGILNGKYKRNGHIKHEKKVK
Experiment: CGT enzyme assay, LC-MS/MS readout (Table 1 ranges without asterisk)
Type: biochemical
Conditions: LC-MS/MS method (range without asterisk)
Description: Full-length human CGT cDNA was cloned into the BamH1/Xho1 site of pcDNA3.1 (+) mammalian expression vector (V90-20, Invitrogen, Carlsbad, Calif.) and the plasmid was transfected into Chinese hamster ovary (CHO) cells. Lysate was prepared using M-PER (Mammalian Protein Extraction Reagent, ThermoFisher Scientific, Grand Island, N.Y.) in the presence of a protease inhibitor cocktail (P8340, Sigma, Saint Louis, Mo.). Each 100 mm dish (100% confluent, approximately 1×10^7 cells) was lysed with 250 μL of M-PER containing protease inhibitors. Protein concentration was determined using a Pierce BCA protein assay kit (ThermoFisher Scientific). Four micrograms of CHO/CGT lysate was incubated with various concentrations of a compound (0.001 μM-50 μM) in 10 mM HEPES (pH 7.2) containing 35 μM dioleoylphosphatidylcholine, 5 mM MgCl2, 5 mM MnCl2, 1% BSA, 15 mM KCl, 1 mM EGTA, 8 mM CHAPS, 10 μM C6-NBD-dihydro-ceramide and 17.5 μM UDP-galactose in a final reaction volume of 20 μL at 37° C. for 1 hour. The final concentration of DMSO was 0.5% in both compound-treated and mock-treated samples. Tween 80 (0.01%) was optionally added to the reaction mixture to help solubilize the compounds. Each individual reaction was diluted with 80 μL of methanol:acetronitrile (1:3) containing 5 μM N-docdecanoyl-NBD-galactosylceramide (internal standard) to stop the reaction. 200 μL H2O:acetonitile (1:1) was added to precipitate the protein. After sufficient mixing, the plates were centrifuged at 2469 g for 38 minutes, 200 μL of supernatant was transferred to a LC/MS 96-deep well plate and a second spin was performed at 2469 g for 10 minutes. The final supernatant was injected in triplicate for RapidFire/MS/MS analysis.
An alternative LC-MS/MS based method was also used. For the LC-MS/MS readout, the CGT assay was identical to the one described above except for the following: […] was used as the CGT enzyme source, C12:0 (2R—OH) ceramide was used as the ceramide substrate and 0.3 μM Cl2 ceramide was used as the internal standard. Tween 80 was not present in the reaction mixture. The final supernatant was injected for LC-MS/MS analysis.
Quantitative analysis using the LC-MS/MS method: The quantitative analysis of C12:0 (2R—OH) ceramide and C12:0 (2R—OH) galactosylceramide by LC-MS/MS was performed on a Shimadzu ultra-fast liquid chromatography (Shimadzu, Japan) coupled with API 4000 mass spectrometer (Applied Biosystems, Concord, Ontario, Canada). Analyst 1.5 software packages (Applied Biosystems) were used to control the LC-MS/MS system, as well as for data acquisition and processing. 10 μL of sample was loaded onto a Luna C18 column (50 mm×2.0 mm, I.D. 3 μm, 100A) (Phenomenex, USA) for chromatographic separation. Mobile phase A consisted of HPLC grade water with 0.1% formic acid (v/v) and mobile phase B consisted of acetonitrile supplemented with 0.1% formic acid (v/v). The separation was achieved using the following gradient program at a flow rate of 0.8 mL/min: the initial mobile phase was 70% B, which was increased in a linear fashion to 95% B in 1.50 min, and then maintained at 95% B until 3.50 min. The mobile phase was then reset to 70% B within 0.01 min, and maintained until 4.50 min. The total run time was 4.50 min. The MS/MS detection was performed in ESI positive mode. The mass transition selected for quantification was m/z 498.5-264.3 for C12:0 (2R—OH) ceramide under the collision energy of 38.8 V, and the mass transition of C12:0 (2R—OH) galactosylceramide was m/z 660.6-264.5 under the collision energy of 51 V. The mass transition of Cl2 ceramide which was used as internal standard was m/z 482.4-264.3 under the collision energy of 33V. Compound IC50 values were calculated using a protocol identical to the one described for the RapidFire method (see Table 1, where data ranges without an asterix correspond to analysis using the LC-MS/MS method).
Using the above CGT enzyme and CGT cellular assays, the compounds of Table 1 were tested. […]

First: NC1CC2CCC(C1)N2C(=O)[C@@H](NS(=O)(=O)c1ccc2cc(OCc3ccccc3)ccc2c1)C(F)(F)c1ccc(Br)cc1 (stereo partly drawn) [Compound 24-1, N-((2R)-3-(3-amino-8-azabicyclo[3.2.1]octan-8-yl)-1-(4-bromophenyl)-1,1-difluoro-3-oxopropan-2-yl)-6-(benzyloxy)naphthalene-2-sulfonamide]
Second: NC1CC2CCC(C1)N2C(=O)[C@@H](NS(=O)(=O)c1ccc(OCc2ccccc2)cc1)C(F)(F)c1ccc(Br)cc1 (stereo partly drawn) [Compound 11-1, N-((2R)-3-(3-amino-8-azabicyclo[3.2.1]octan-8-yl)-1-(4-bromophenyl)-1,1-difluoro-3-oxopropan-2-yl)-4-(benzyloxy)benzenesulfonamide trifluoroacetate]
The IC50 of the first is lower: 1 to 10 µM for the first, 10 to 30 µM for the second. The first is the more potent here.

Compared with `CC(C)Oc1ccc2cc(S(=O)(=O)N[C@@H](C(=O)N3C4CCC3CC(N(C)C)C4)C(F)(F)c3ccc(Br)cc3)ccc2c1` (stereo partly drawn) [Compound 21-2, N-((2S)-1-(4-bromophenyl)-3-(3-(dimethylamino)-8-azabicyclo[3.2.1]octan-8-yl)-1,1-difluoro-3-oxopropan-2-yl)-6-isopropoxy naphthalene-2-sulfonamide], `CC[C@@H](C)Oc1ccc2cc(S(=O)(=O)N[C@@H](C(=O)N3C4CCC3CC(N)C4)C(F)(F)c3ccc(Br)cc3)ccc2c1` (stereo partly drawn) [Compound 13-4, N-((2S)-3-(3-amino-8-azabicyclo[3.2.1]octan-8-yl)-1-(4-bromophenyl)-1,1-difluoro-3-oxopropan-2-yl)-6-((R)-sec-butoxy)naphthalene-2-sulfonamide] is lower in IC50: 30 to 100 µM for the first, 10 to 30 µM for the second. The second is the more potent here.

`CCCCOc1ccc2cc(S(=O)(=O)N[C@H](C(=O)N3C4CCC3CC(N)C4)C(F)(F)c3ccc(Br)cc3)ccc2c1` (stereo partly drawn) [Compound 6-1, N-((2R)-3-(3-amino-8-azabicyclo[3.2.1]octan-8-yl)-1-(4-bromophenyl)-1,1-difluoro-3-oxopropan-2-yl)-6-butoxynaphthalene-2-sulfonamide trifluoroacetate] and `CCCCCCOc1ccc(S(=O)(=O)N[C@H](C(=O)N2C3CCC2CC(N)C3)C(F)(F)c2ccc(Br)cc2)cc1` (stereo partly drawn) [Compound 23-1, N-((2R)-3-(3-amino-8-azabicyclo[3.2.1]octan-8-yl)-1-(4-bromophenyl)-1,1-difluoro-3-oxopropan-2-yl)-4-(hexyloxy)benzenesulfonamide] fall in the same range of IC50: 1 to 10 µM for the first, 1 to 10 µM for the second.

Compared with `CC(C)c1ccc2cc(S(=O)(=O)N[C@@H](C(=O)N3C4CCC3CC(N)C4)C(F)(F)c3ccc(Br)cc3)ccc2c1` (stereo partly drawn) [Compound 16-2, N-((2S)-3-(3-amino-8-azabicyclo[3.2.1]octan-8-yl)-1-(4-bromophenyl)-1,1-difluoro-3-oxopropan-2-yl)-6-isopropylnaphthalene-2-sulfonamide trifluoroacetate], `CC(C)c1ccc2cc(S(=O)(=O)N[C@H](C(=O)N3C4CCC3CC(N)C4)C(F)(F)c3ccc(Br)cc3)ccc2c1` (stereo partly drawn) [Compound 16-1, N-((2R)-3-(3-amino-8-azabicyclo[3.2.1]octan-8-yl)-1-(4-bromophenyl)-1,1-difluoro-3-oxopropan-2-yl)-6-isopropylnaphthalene-2-sulfonamide trifluoroacetate] is lower in IC50: 30 to 100 µM for the first, 1 to 10 µM for the second.

First: CC(C)Oc1ccc2cc(S(=O)(=O)N[C@@H](C(=O)N3CCC(N)CC3)C(F)(F)c3ccc(Br)cc3)ccc2c1Br [Compound 119-2, (S)—N-(3-(4-aminopiperidin-1-yl)-1-(4-bromophenyl)-1,1-difluoro-3-oxopropan-2-yl)-5-bromo-6-isopropoxynaphthalene-2-sulfonamide]
Second: NC1CC2CCC(C1)N2C(=O)[C@H](NS(=O)(=O)c1ccc2cc(OC3CCCC3)ccc2c1)C(F)(F)c1ccc(Br)cc1 (stereo partly drawn) [Compound 5-2, N-((2S)-3-(3-amino-8-azabicyclo[3.2.1]octan-8-yl)-1-(4-bromophenyl)-1,1-difluoro-3-oxopropan-2-yl)-6-(cyclopentyloxy)naphthalene-2-sulfonamide trifluoroacetate]
The IC50 of the first is higher: 10 to 30 µM for the first, 1 to 10 µM for the second.

First: NC1CC2CCC(C1)N2C(=O)[C@@H](NS(=O)(=O)c1ccc(OCCC2CCCCC2)cc1)C(F)(F)c1ccc(Br)cc1 (stereo partly drawn) [Compound 26-1, N-((2R)-3-(3-amino-8-azabicyclo[3.2.1]octan-8-yl)-1-(4-bromophenyl)-1,1-difluoro-3-oxopropan-2-yl)-4-(2-cyclohexylethoxy)benzenesulfonamide trifluoroacetate]
Second: NC1CC2CCC(C1)N2C(=O)[C@@H](NS(=O)(=O)c1ccc(Oc2ccc(Cl)cn2)cc1)C(F)(F)c1ccc(Br)cc1 (stereo partly drawn) [Compound 18-1, N-((2R)-3-(3-amino-8-azabicyclo[3.2.1]octan-8-yl)-1-(4-bromophenyl)-1,1-difluoro-3-oxopropan-2-yl)-4-((5-chloropyridin-2-yl)oxy)benzenesulfonamide trifluoroacetate]
The IC50 of the first is lower: 1 to 10 µM for the first, 10 to 30 µM for the second.

Compared with `NC1CC2CCC(C1)N2C(=O)[C@@H](NS(=O)(=O)c1cccc(OCc2ccc(F)cc2)c1)C(F)(F)c1ccc(Br)cc1` (stereo partly drawn) [Compound 17-1, N-((2R)-3-(3-amino-8-azabicyclo[3.2.1]octan-8-yl)-1-(4-bromophenyl)-1,1-difluoro-3-oxopropan-2-yl)-3-((4-fluorobenzyl)oxy)benzenesulfonamide trifluoroacetate], `NC1CC2CCC(C1)N2C(=O)[C@@H](NS(=O)(=O)c1ccc(Oc2ccc(F)cc2)cc1)C(F)(F)c1ccc(Br)cc1` (stereo partly drawn) [Compound 25-1, N-((2R)-3-(3-amino-8-azabicyclo[3.2.1]octan-8-yl)-1-(4-bromophenyl)-1,1-difluoro-3-oxopropan-2-yl)-4-(4-fluorophenoxy)benzenesulfonamide trifluoroacetate] is lower in IC50: 30 to 100 µM for the first, 1 to 10 µM for the second. The second is the more potent here.

Compared with `CC(C)Oc1ccc2cc(C(=O)C(=O)N[C@H](C(=O)N3C4CCC3CC(N)C4)C(F)(F)c3ccc(Br)cc3)ccc2c1` (stereo partly drawn) [Compound 9-1, N-((2R)-3-(3-amino-8-azabicyclo[3.2.1]octan-8-yl)-1-(4-bromophenyl)-1,1-difluoro-3-oxopropan-2-yl)-2-(6-isopropoxynaphthalen-2-yl)-2-oxoacetamide trifluoroacetate], `NC1CC2CCC(C1)N2C(=O)C(NS(=O)(=O)c1ccc(-c2ccc(F)cc2)nc1)C(F)(F)c1ccc(Br)cc1` (stereo not shown) [Compound 199, N-(3-(3-amino-8-azabicyclo[3.2.1]octan-8-yl)-1-(4-bromophenyl)-1,1-difluoro-3-oxopropan-2-yl)-6-(4-fluorophenyl)pyridine-3-sulfonamide] is higher in IC50: 10 to 30 µM for the first, 30 to 100 µM for the second.
